Source: patent US11033600B2, “Protease transition state inhibitor prodrugs” (priority 2016, dated 2021)
Like-named read-outs stand apart in the source and are kept apart here.

Columns and labels:
[1] = target: norovirus 3CL protease (NV 3CLpro) (Norovirus, UniProt Q83883); assay: FRET protease assay (3CL protease), enzyme inhibition; type: biochemical
Experimental: FRET protease assays. The FRET protease assay (3CL protease) was performed by preparing stock solutions of the substrate (Edans-DFHLQ/GP-Dabcyl, SEQ ID NO:1) and inhibitor in DMSO and diluting into assay buffer which was comprised of 20 mM HEPES buffer, pH 8, containing NaCl (200 mM), 0.4 mM EDTA, glycerol (60%), and 6 mM dithiothreitol (DTT). The protease was mixed with serial dilutions of each compound up to 100 μM or with DMSO in 25 μL of assay buffer and incubated at 37° C. for 30 min, followed by the addition of 25 μL of assay buffer containing substrate. Fluorescence readings were obtained using an excitation wavelength of 360 nm and an emission wavelength of 460 nm on a fluorescence microplate reader (FLx800; Biotec, Winoosk, Vt.) 1 h following the addition of substrate. Relative fluorescence units (RFU) were determined by subtracting background values (substrate-containing well without protease) from the raw fluorescence values. The dose-dependent FRET inhibition curves were fitted with a variable slope by using GraphPad Prism software (GraphPad, La Jolla, Calif.) in order to determine the IC50 values of the inhibitors.

[2] = system: NV in replicon harboring cells (HG23 cells); assay: Cell-based assay: virus replication in NV replicon harboring cells (HG23 cells), qRT-PCR; set-up: species or system norovirus (NV)
Experimental: The effects of each inhibitor on virus replication were examined against NV in the NV replicon harboring cells (HG23 cells). Briefly, confluent and semi-confluent HG23 cells were incubated with medium containing DMSO (<0.1%) or each compound (up to 200 uM) for 48 h. After the incubation, total RNA was extracted and viral genome was quantitated with real-time quantitative RT-PCR (qRT-PCR). The EC50 values were determined by GraphPadPrism software.

[3] = IV, SC and PO routes, rats
[4] = Table 2, carbamate prodrugs, read-out: IC50
[5] = Table 2, carbamate prodrugs, HG23 cells, 48 h, read-out: EC50
[6] = Norovirus, HG23, given in M, read-out: EC50

Chain of norovirus 3CL protease (NV 3CLpro) (Q83883 1101-1281): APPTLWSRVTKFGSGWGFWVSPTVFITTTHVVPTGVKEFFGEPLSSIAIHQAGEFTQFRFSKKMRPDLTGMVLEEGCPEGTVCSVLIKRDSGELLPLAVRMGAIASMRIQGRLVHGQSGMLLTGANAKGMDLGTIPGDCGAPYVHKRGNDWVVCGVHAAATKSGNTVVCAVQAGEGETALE

Row | SMILES | IC50 [1, 4] | EC50 [2, 5] | also measured
1 | CCCCCC(=O)OC([C@H](C[C@@H]1CCNC1=O)NC(=O)[C@H](CC1CCCCC1)NC(=O)OCc1cccc(Cl)c1)S(=O)(=O)O (stereo partly drawn) [Compound 11, (5S,8S)-1-(3-Chlorophenyl)-5-(cyclohexylmethyl)-3,6,11-trioxo-8-(((S)-2-oxopyrrolidin-3-yl)methyl)-2,10-dioxa-4,7-diazahexadecane-9-sulfonate] |  |  | IC50 ([1]; Table 1, ester prodrugs, average of at least two determinations, read-out: IC50 (50% inhibitory concentration in the enzyme assay)): 0.1 µM; EC50 ([2]; Table 1, ester prodrugs, HG23 cells, 48 h, read-out: EC50 (50% effective concentration in cell culture)): 15 nM; Conversion of prodrug to the aldehyde form (compound 25) in rat plasma [3]: most of compound 11 was converted to the aldehyde form
2 | COC(=O)C(NC(=O)OC([C@H](C[C@@H]1CCNC1=O)NC(=O)[C@H](CC(C)C)NC(=O)OCc1ccccc1)S(=O)(=O)O)C(C)C (stereo partly drawn) [Compound 20, (5 S,8S)-5-Isobutyl-13-isopropyl-3,6,11,14-tetraoxo-8-(((S)-2-oxopyrrolidin-3-yl)methyl)-1-phenyl-2,10,15-trioxa-4,7,12-triazahexadecane-9-sulfonate] | 2.5 µM | 400 nM | 
3 | COC(=O)C(C)NC(=O)OC([C@H](C[C@@H]1CCNC1=O)NC(=O)[C@H](CC1CCCCC1)NC(=O)OCc1cccc(Cl)c1)S(=O)(=O)O (stereo partly drawn) [Compound 21, (5 S, 8S)-1-(3-Chlorophenyl)-5-(cyclohexylmethyl)-13-methyl-3,6,11,14-tetraoxo-8-(((S)-2-oxopyrrolidin-3-yl)methyl)-2,10,15-trioxa-4,7,12-triazahexadecane-9-sulfonate] | 0.8 µM | 25 nM | 
4 | COC(=O)C(NC(=O)OC([C@H](C[C@@H]1CCNC1=O)NC(=O)[C@H](CC1CCCCC1)NC(=O)OCc1cccc(Cl)c1)S(=O)(=O)O)C(C)C (stereo partly drawn) [Compound 22, (5 S,8S)-1-(3-Chlorophenyl)-5-(cyclohexylmethyl)-13-isopropyl-3,6,11,14-tetraoxo-8-(((S)-2-oxopyrrolidin-3-yl)methyl)-2,10,15-trioxa-4,7,12-triazahexadecane-9-sulfonate] | 0.5 µM | 40 nM | 
5 | COC(=O)C(C)NC(=O)OC([C@H](C[C@@H]1CCNC1=O)NC(=O)[C@H](CC1CCCCC1)NC(=O)OCc1ccccc1)S(=O)(=O)O (stereo partly drawn) [Compound 23, (5 S,8S)-5-(Cyclohexylmethyl)-13-methyl-3,6,11,14-tetraoxo-8-(((S)-2-oxopyrrolidin-3-yl)methyl)-1-phenyl-2,10,15-trioxa-4,7,12-triazahexadecane-9-sulfonate] | 10.2 µM | 200 nM | 
6 | CC(C)C[C@H](NC(=O)OCc1ccccc1)C(=O)N[C@@H](C[C@@H]1CCNC1=O)C(O)S(=O)(=O)O (stereo partly drawn) [Compound 24, reference compound] |  |  | IC50 ([1]; in μM, read-out: IC50): 0.8 µM; EC50 [2, 6]: 300 nM
7 | O=C(N[C@@H](CC1CCCCC1)C(=O)N[C@@H](C[C@@H]1CCNC1=O)C(O)S(=O)(=O)O)OCc1cccc(Cl)c1 (stereo partly drawn) [Compound 26, reference compound] |  |  | IC50 ([1]; in μM, read-out: IC50): 0.1 µM; EC50 [2, 6]: 20 nM
